Consider 1 molecule from patent publication US20060089408A1, “Method of treating blepharospasm with a prostaglandin derivative” (priority 2004, published 2006).

The assay has as its system patients with blepharospasm. Nature of the assay: Observational prospective case series of 21 consecutive patients with blepharospasm treated with Latanoprost. It is filed as in vivo, human. On the procedure:
It is the inventor's unique discovery that latanoprost improves some forms of blepharospasm. Over a period of three years starting from 2000, 21 patients with various forms of blepharospasm were treated with latanoprost. In more than 75% of the cases observed, the symptoms of blepharospasm were much improved ranging from mild resolution to complete improvement.
Observational prospective case series of 21 consecutive patients comprising mostly Asian descent with blepharospasm were treated with Latanoprost for a mean follow-up period of 1.5 years. Assessment of therapy was made by symptomatic evaluation and clinical examination. Severity of patient's initial symptoms ranged from myokimia to blepharospasm with facial dystonia.
The patients were pooled from the Los Angeles County metropolitan area and the Pacific Rim and all of the patients are of Chinese descent. The patients were excluded if they had secondary causes of blepharospasm such as light sensitivity, lid hygiene (blepharitis), dry eyes, and emotional or physical psychological stressors.
Therapeutic intervention involved administration of one drop of Latanoprost in the affected eye at night. Adverse effects were assessed by the patient's subjective feedback and physician's examination. Outcome assessment was determined mainly by subjective reporting by the patient.
Table 1 illustrates the physician's grading scale, wherein grade I signified blepharospasm isolated just to the eyes; Grade II described blepharospasm with some form of facial dystonia; and Grade III described blepharospasm with facial dystonia extending to the neck region
Table 2 illustrates patient's subjective evaluation of improvement that subjective opinion of improvement is on a scale ranging from 0 to 10, where zero indicated no improvement and 10 indicated complete resolution.
Table 3 illustrates demographics and clinical data of the patients involved in the above clinical study. In Table 3, F represent female, M represent male, duration represents duration of treatment, OU represents blepharospasm in both eyes, OD represents blepharospasm in right eye only, and OS represents blepharospasm in left eye. Date start illustrates the date starting treatment of prostaglandin derivatives, improvement illustrates the time required for first noticeable improvement, while scale imp represents scale of improvement according to the subjective evaluation grading as shown in Table 2.

Where “and” joins values, the source holds several entries; their conditions need not be identical. Identical values can stand only once.

Consider `CC(C)OC(=O)CCC/C=C\C[C@@H]1[C@@H](CC[C@@H](O)CCc2ccccc2)[C@H](O)C[C@@H]1O` [Latanoprost, isopropyl-(Z)-7[(1R,2R,3R,5S)3,5-dihydroxy-2-[(3R)-3-hydroxy-5-phenylpentyl]cyclopentyl]-5-heptenoate], for which the “patients who reported moderate to complete resolution of symptoms after treatment” value (21 consecutive patients, mean follow-up 1.5 years) is reported as “over 75%”. Besides, under “21 patients with various forms of blepharospasm, three years starting from 2000”, the “cases in which symptoms of blepharospasm were much improved, ranging from mild resolution to complete improvement” value is “more than 75%”. Also, under “Case 1, 30 years history, right eye, 1.5 ug per day, after 3 weeks of treatment”, the “change in spasm of eyelids and face” value was “considerable decrease in spasm of their eyelids and face”. Also, under “after treatment, 21 patients”, the “patients who noted subjective improvement in their blepharospasm” value is on record as 19 of 21 and the “patients who reported no change” value amounted to 2 patients. The “duration of treatment required before effects were seen” value (general statement on the series) is “approximately 2 months”. Further, where the note is “individual patient, one drop in the affected eye at night”, the “Improvement (time required for first noticeable improvement)” value was 2 months (13×) and 1 months (6×). Where the note is “individual patient, scale 0 to 10: 0 no improvement, 5 50% improvement, 10 complete resolution, one drop in the affected eye at night”, the “Scale imp (scale of improvement, patient's subjective evaluation grading)” value was 5 (6×) and 10 (2×) and 8 (6×) and 7 and 9 (3×) and 6 and 0 (2×). Moreover, for the setting “whole series of 21 patients”, the “time at which noticeable improvements occurred after initiation of treatment” value is 1-2 months. Also, the “average amount of improvement” value (whole series, subjective scale 0 to 10) stood at 6.95.
